Assay results taken from US11154551B2, “HDAC1,2 inhibitors and methods of using the same” (UNIVERSITY OF UTAH RESEARCH FOUNDATION, priority 2014, dated 2021).
“Also recorded” adds a separate entry of the source.

Columns and labels:
[1] = system: Hdac1,2 or Hdac3 knockout cell lines; assay: Western blot of H4K5ac in conditional Hdac1,2 or Hdac3 knockout cells; format: cell-based, mouse
Procedure: (§1) For IC50 determination, recombinant HDAC enzymes were treated with HDAC1,2 or HDAC3 inhibitors in in vitro HDAC assays. (B). Western blots for H3K23ac using extracts from Pre-B-ALL SupB15 cells treated with increasing dose of HDAC1,2 inhibitor (ACY1035). (C). Hdac1^FI/FI, 2^FI/FI cells were infected with Ad-Cre virus to delete HDAC1 and HDAC2 (HDAC1,2 null) or uninfected (WT). (D). Hdac3^FI/FI cells were either uninfected (WT) or infected with Ad-Cre virus to delete Hdac3.

[2] = system: SUDHL4 cells; assay: propidium-iodide / BrdU-PI cell cycle analysis; format: cell-based, human; conditions: for progression through the cell cycle: 24 h; for progression through the cell cycle / cell cycle / G1 arrest and sub-G1: 2 μM ACY-957, 0.5 μM DZNEP, 0.5 μM GSK126; for cell cycle / G1 arrest and sub-G1: 72 h
Procedure: (§2) (B): Quantitation of the cell cycle data in (A), compiled from three independent analyses. The graphs plotted the average percentage of cells in each phase of the cell cycle. […] (C): FACS analysis following BrdU-PI staining of Karpas-422 and SUDHL4 cells was performed following a 48 h or 72 h treatment with ACY-957.
(§3) (B): Quantitation of the cell cycle analysis performed in (A). Data from three independent cell cycle analyses were compiled and average percentage cells with standard errors were shown in this panel.
(§4) Propidium-iodide Cell Cycle Analysis.
(§5) Since these DLBCL cells expressed a hyperactive form of EZH2, pharmacological inhibition of EZH2 activity was considered a therapeutic strategy. […] GSK126 was a S-adenosyl-methionine-competitive inhibitor of EZH2 methyltransferase activity, and DZNep was a S-adenosylhomocysteine hydrolase inhibitor that disrupted the components of the PRC2 complex, thereby causing reduced chromatin-associated EZH2 levels.

[3] = system: Karpas-422 and SUDHL4 cells; assay: Western blot of chromatin extracts for H3K27ac and H3K27me3; format: cell-based, human; conditions: 48 h, chromatin extracts
Procedure: Western blot analysis was done with anti-H3K27ac, H3K27me3 or EZH2 and histone H3 served as a loading control.
Following DMSO or ACY-957 treatment, cells were exposed to a 5Gy dose of ionizing radiation and allowed to recover for 30 minutes prior to chromatin extraction. Western blots were performed with anti-H3K27ac or anti-H3K27me3 with histone H3 serving as a loading control. (B-E): Karpas-422, SUDHL4, WSU-DLCL2 and HeLa cells were laser micro-irradiated and allowed to recover for 15 minutes before fixation and immunofluorescence staining with anti-γH2AX and anti-H3K27me3. Subsequently, the percentage of cells with H3K27me3 lines that co-localized with γH2AX were counted. Merge is the overlay of γH2AX and H3K27me3 pictures. (F-I): At least 100 cells with γH2AX lines were counted in each experiment. The quantitation shown was the average calculated from independent experiments+/−standard error. Quantitation from five, seven, five and six independent experiments performed in Karpas-422, SUDHL4, WSU-DLCL2 and HeLa cells, respectively, was used in the graph shown in this figure. (J): Karpas-422 cells were micro-irradiated with a laser and allowed to recover for 15 minutes before fixation and immunofluorescence staining was performed with anti-γH2AX and anti-H3K27ac.
Protein Preparation and Western Blot Analysis.
The histone H3K27 residue was subjected to reversible acetylation and methylation. […] We also treated cells with the second EZH2 inhibitor, GSK126 alone, or combined with ACY-957 (ACY-957+GSK126). […] Cells were treated for 48 h prior to preparing chromatin extracts for Western analysis using antibodies recognizing H3K27ac or H3K27me3.
We first examined whether inhibiting HDAC1,2 activity induced any change in global H3K27ac or H3K27me3 on chromatin following DNA damage and during DNA repair. SUDHL4 or Karpas-422 cells with or without exposure to ionizing radiation (IR) were initially treated with DMSO or ACY-957 for 48 hr. Chromatin extracts were prepared from these cells following a 30 min recovery period (the repair phase) and changes in histone modifications were examined by Western blotting.

[4] = system: Karpas-422 cells; conditions: publically available RNA seq data set of GSK126 treated cells; cited from earlier work
[5] = system: Karpas-422 cells; assay: propidium-iodide / BrdU-PI cell cycle analysis; format: cell-based, human; conditions: for progression through the cell cycle: 24 h; for progression through the cell cycle / cell cycle / sub-G1 (dead cells): 2 μM ACY-957, 0.5 μM DZNEP, 0.5 μM GSK126
Procedure: as §2
Cell cycle analysis of propidium-iodide stained cells was performed with fixed cells. […] (C): FACS analysis following BrdU-PI staining of Karpas-422 and SUDHL4 cells was performed following a treatment with 2 μM ACY-957, 50 nM doxorubicin or both for 48 h.
as §3, §4, §5
To test this possibility, cell cycle analysis following treatment of Karpas-422 with ACY-957, doxorubicin, or ACY-957 in combination with doxorubicin was performed.

[6] = system: SUDHL4 and Karpas-422 cells; assay: γH2AX foci formation by immunofluorescence; format: cell-based, human; conditions: 48 h; 2 μM ACY-957, 0.5 μM DZNEP, 0.5 μM GSK126
Procedure: (§6) The percentage of cells with 6 or greater γH2AX foci were counted in three independent experiments and at least 100 cells were counted in each experiment. […] Histones were purified using trichloroacetic acid extraction protocol (see Example 1). Western blot analysis was done with anti-γH2AX and histone H2AX served as the loading control. […] Following DMSO or ACY957 treatment, cells were exposed to a 5Gy dose of ionizing radiation and allowed to recover for 30 minutes prior to chromatin extraction. Western blot analysis was done with anti-γH2AX where total histone H2AX served as a loading control. (D): Karpas-422 cells were micro-irradiated with laser and allowed to recover for 15 minutes before fixation and immunofluorescence staining with anti-γH2AX, anti-HDAC1 and anti-HDAC2 antibodies was done.
Immunofluorescence. Cells were fixed in either 10% formalin or methanol-acetone (1:1) for 10 min at −20*C. The cells were then permeabilized with 0.5% Triton-X-100 in PBS for 5 min at room temperature (RT), blocked in 10% normal goat serum (Sigma) for 30 min and stained with primary antibody for 1 h at RT. Cells were incubated with secondary antibody (anti-mouse or anti-rabbit IgG, Alexa Fluor 488/546) at a 1:600 dilution for 45 min at RT, and counterstained with Hoechst 33342 (Sigma) at 1:1000 dilution to visualize the nuclei. Images were captured using Zeiss Axioskop mot plus microscope with a 40× lens and analyzed using the AxioVision software.

[7] = system: SUDHL4 and Karpas-422 cells; assay: Western blot of γH2AX on chromatin, with or without ionizing radiation; format: cell-based, human; conditions: 48 hr, Western
Procedure: as §6

[8] = system: Hdac1,2; assay: in vitro enzyme assays, IC50 determination (FIG. 17A); format: biochemical
Procedure: as §1, with “(A). For” for “For”, “Hdac3. HDAC3-null cells were treated with DMSO or the HDAC1,2 selective inhibitor.” for “Hdac3.”
We have determined 2 μM (FIG. 17B) as the minimum dose for the ACY compounds, respectively, that when added to cells increased H3K23ac (a mark targeted by Hdac1,2 but not Hdac3).

[9] = system: SupB15 (Ph+PreB-ALL) cells; assay: γH2AX immunofluorescence; format: cell-based, human; conditions: 2 μM, 48 hours
Procedure: SupB15 cells were treated with 2 μM ACY1035, ACY1071, ACY957, or solvent (DMSO) for 48 hours. (A) Immunofluorescence with γH2AX was performed on treated SupB15 cells. The number of γH2AX foci was counted in around 100 cells for each treatment and classified into cells with no foci, 1-5, 6-10, and greater than 10 foci. (B) SupB15 cells treated with DMSO or ACY1035 for 48 hours were tested via neutral comet assay to measure the amount of double-strand breaks (DSBs), indicated by the tail.
BCR-ABL promotes DNA repair to prevent DNA damage accumulation in Philadelphia chromosome-positive (Ph+) leukemia cells. To examine the effect of various HDAC1,2-selective inhibitors on DNA repair and DNA damage response in Pre-B-ALL cells that express BCR-ABL, SupB15 (Ph+PreB-ALL) cells were treated with 2 μM ACY1035 or 2 μM ACY1071 or 2 μM ACY957 for 48 hours.

[10] = system: Karpas-422 and SUDHL4 cells; assay: Western blot of histone acetylation marks in whole cell lysates; conditions: 2 μM, 24 hours, vs DMSO
Procedure: Compounds were diluted in DMSO to 50 fold the final concentration and a ten point three fold dilution series was made. The compounds were diluted in assay buffer (50 mM HEPES, pH 7.4, 100 mM KCl, 0.001% Tween-20, 0.05% BSA, 20 μM tris(2-carboxyethyl)phosphine) to 6 fold their final concentration. The HDAC enzymes (purchased from BPS Biosciences) were diluted to 1.5 fold their final concentration in assay buffer. The tripeptide substrate (synthesized in house) and trypsin at 0.05 μM final concentration were diluted in assay buffer at 6 fold their final concentration. Five μl compounds and 20 μl of enzyme were added to wells of a black, opaque 384 well plate in duplicate. Enzyme and compound were incubated together at room temperature for 10 minutes. Five μl of substrate was added to each well, the plate was shaken for 60 seconds and placed into a Victor 2 microtiter plate reader. The development of fluorescence was monitored for 60 min and the linear rate of the reaction was calculated. The IC50 was determined using Graph Pad Prism by a four parameter curve fit.

SMILES | progression through the cell cycle [2] | cell cycle / G1 arrest and sub-G1 [2] | global H3K27me3 levels [3] | progression through the cell cycle [5] | cell cycle / sub-G1 (dead cells) ([5]; 48 h) | cell cycle / sub-G1 (dead cells) ([5]; 72 h) | cells with γH2AX foci [6] | other results
Nc1ccccc1NC(=O)c1ccc(CNC(=O)OCc2cccnc2)cc1 [MS275, reference compound] | – | – | – | – | – | – | – | H4K5ac compared with deletion of Hdac1,2 [1]: greater increase in H4K5ac than the deletion of just Hdac1,2
CC[C@H](C)n1cc(C)c2c(C(=O)NCc3c(C)cc(C)[nH]c3=O)cc(-c3ccc(N4CCNCC4)nc3)cc21 [GSK126, reference compound] | did not affect their progression through the cell cycle | did not result in any defect in the cell cycle progression and/or survival | decrease in global H3K27me3 levels; also recorded: significant decrease in H3K27me3 | did not affect their progression through the cell cycle | did not cause any change in the progression | did not result in any defect in the cell cycle progression and/or survival | slight increase in γH2AX foci | cell cycle / G1 arrest ([2]; 48 h, 2 μM ACY-957, 0.5 μM GSK126): did not cause any change in the progression; BLIMP1 expression increase [4]: 2.4 fold; incubation required to decrease the viability [5]: 7 days
Nc1nccc2c1ncn2C1C=C(CO)C(O)C1O (stereo not shown) [DZNep, reference compound] | did not affect their progression through the cell cycle | modest increase in dead/sub-G1 SUDHL4 cells | without reducing global H3K27me3 levels | did not affect their progression through the cell cycle | modest increase in the number of dead Karpas-422 cells | larger increase in the number of dead Karpas-422 cells | significant increase in the number of cells with greater than six γH2AX foci | chromatin associated γH2AX [7]: greater increase in γH2AX levels on chromatin compared to GSK126
Nc1ccc(-c2ccncc2)cc1NC(=O)c1ccc2c(c1)cc(C1CC1)n2CCN1CCOCC1 [ACY-1071, N-(2-amino-5-(pyridin-4-yl)phenyl)-2-cyclopropyl-1-(2-morpholinoethyl)-1H-indole-5-carboxamide] | – | – | – | – | – | – | – | inhibition of Hdac1,2 activities compared to Hdac3 (IC50 values) [8]: very selectively; DNA damage, quantitation of γH2AX foci [9]: statistically significant increase in DNA damage
O=C(CCCCCCC(=O)Nc1ccccc1)NO [SAHA, Vorinostat, reference compound] | – | – | – | – | – | – | – | H3K23ac levels [10]: increase in H3K23ac
